Data on one substance can be found in US9510521B2, “Use of abscisic acid to alter sensory characteristics of red grapes and wine” (Valent BioSciences Corporation, priority 2007, dated 2016).

The test system of experiment [1] is Shiraz grapes. Kind of experiment: Sensory panel of 6 assessors, Shiraz wine, foliar S-ABA at veraison. The following applies: 200 ppm foliar spray at veraison. The format is in vivo, grape. Here is the method: S-ABA (200 ppm) was applied by foliar spray at veraison to commercially grown Shiraz grapes through standard agricultural spray equipment on 12 Jan. 2007. Kendeen 20 (Tween 20) was added to the spray mix at 50 ml/100 L. Reported results are means of 3 replicates. Winemaking followed a standard small lot fermentation protocol with each replicate wine being made from 50 kg of harvested grapes.

For experiment [2], the system named is Shiraz grapes. The experiment in a line: Sensory profile of Shiraz wine from S-ABA-treated fruit, 10 experienced sensory assessors. Conditions: 200 ppm foliar spray, 10 assessors. Format: in vivo, grape. The method, then: (§1) S-ABA (200 ppm) was applied by foliar spray using a standard vineyard airblast sprayer at 2000 L/ha to commercially grown Shiraz grapes approximately 3 weeks prior to initiation of veraison. The spray mix contained the surfactant/wetter Agral at 10 ml/100 L. Results reported are means of 4 replicates (grapes) and 3 replicates (wines) per treatment. Winemaking followed a standard small lot fermentation protocol with each replicate wine being made from 50 kg of harvested grapes.
Using a nine-point hedonic scale rating (dislike=1 to like=9) the sensors judged wine from the S-ABA treatment higher than the untreated (6.2 vs. 5.0, respectively) and thus a technically better wine.

In experiment [3] the test system is Cabernet Sauvignon grapes. The experiment in a line: Sensory panel rating of Cabernet Sauvignon wine from S-ABA treatment. Format: in vivo, grape. Conditions: 1-5 scale, 1 = low/short, 5 = high/long. Here is the method:
S-ABA (200 ppm) was applied by foliar spray to Cabernet Sauvignon grapes when sugar levels were approximately 11 Be using a standard vineyard airblast sprayer at approximately 2000 L/ha. The spray mix contained the surfactant/wetter Agral at 10 ml/100 L. Wine was prepared from the treated and untreated grapes.

Experiment [4] relates to Shiraz grapes. The experiment in a line: Foliar S-ABA on Shiraz grapes about 3 weeks before veraison: grape quality at harvest and wine quality. The following applies: 200 ppm foliar spray approx. 3 weeks prior to veraison. The format is in vivo. Here is the method:
as §1
However, at-harvest grape anthocyanin and wine color density and total phenolics are increased by S-ABA.

Experiment [5] relates to Shiraz grapes. The experiment in a line: Sensory panel of 6 assessors, Shiraz wine, drip irrigation S-ABA. Format: in vivo, grape. The following applies: 0.4 grams per vine via drip irrigation. Here is the method:
S-ABA (0.4 grams per vine) was applied to commercially grown Shiraz grapes through the drip irrigation system at approximately 3 weeks prior to initiation of veraison. No surfactant was added to the irrigation water. Results reported are means of 3 replicates. Winemaking followed a standard small lot fermentation protocol with each replicate wine being made from 50 kg of harvested grapes.
Table 5 illustrates that S-ABA increased anthocyanin and phenolics of grape/juice at crush and wine color density and total phenolics and reduced wine hue. S-ABA had no effect on sugar, pH, or total acidity of grapes/juice at crush or on alcohol or pH of wine.

“(S)-5-(1-hydroxy-2,6,6,-trimethyl-4-oxo-2-cyclohexen-1-yl)-3-methyl-(2Z,4E)-pentadienoic acid [S-ABA]”: the “Sensory panel of 6 assessors” value in the experiment on Shiraz grapes [1] is “more intense fruit, spice and herbaceous flavors and more tannin”. Moreover, in the experiment with Shiraz grapes [2] (Shiraz wine sensory profile), the Aroma result was “more intense berry aroma”; the Color entry is “Increased intensity”; the Taste result is “more fruity, more acidic taste”. Also, the “Hedonic scale (1-dislike, 9 like)” value in the experiment on Shiraz grapes [2] (Shiraz wine, nine-point hedonic scale) is 6.2. Moreover, in experiment [3], the Body/fullness turned out to be 1.7 and the Flavor intensity amounted to 2.7. Moreover, in the experiment on Shiraz grapes [4], the Wine hue is 0.56. In addition, the “Sensory panel of 6 assessors” value in the experiment on Shiraz grapes [5] is “more intense fruit and was less acidic”.
